Laboratory results from ChEMBL document CHEMBL1141697, “Promising core structure for nuclear receptor ligands: design and synthesis of novel estrogen receptor ligands based on diphenylamine skeleton” (Bioorg Med Chem Lett, 2008).
Calls of active or inactive are those of the source. The rule behind the calls is not given here.

Columns and labels:
MCF7 [1] = experiment: cells; conditions: Homo sapiens, MCF7, 144 h
[2] = target: T1, Estrogen receptor (Homo sapiens) (UniProt P03372); experiment: Displacement of [2,4,6,7-3H]17beta-estradiol from human recombinant ERalpha receptor by liquid scintillation counter relative to 17-beta-estradiol
T1 sequence (whole entry): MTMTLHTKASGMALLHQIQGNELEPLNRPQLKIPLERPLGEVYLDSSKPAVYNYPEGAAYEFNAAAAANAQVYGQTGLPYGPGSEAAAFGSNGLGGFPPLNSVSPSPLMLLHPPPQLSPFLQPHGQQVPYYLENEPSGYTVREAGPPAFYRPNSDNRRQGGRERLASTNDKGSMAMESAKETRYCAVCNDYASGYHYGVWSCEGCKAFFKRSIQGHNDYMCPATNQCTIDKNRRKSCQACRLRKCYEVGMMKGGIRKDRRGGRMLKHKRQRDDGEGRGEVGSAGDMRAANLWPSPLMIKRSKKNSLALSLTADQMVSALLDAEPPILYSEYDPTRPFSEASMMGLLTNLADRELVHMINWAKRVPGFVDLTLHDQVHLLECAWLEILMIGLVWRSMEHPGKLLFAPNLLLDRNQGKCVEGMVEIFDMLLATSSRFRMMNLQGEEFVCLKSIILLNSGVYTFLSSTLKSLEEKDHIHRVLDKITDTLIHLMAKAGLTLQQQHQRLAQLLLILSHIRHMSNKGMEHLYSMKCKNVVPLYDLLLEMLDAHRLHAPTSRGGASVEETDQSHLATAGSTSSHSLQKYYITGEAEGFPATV

MCF7 [3] = experiment: Estrogenic activity in human MCF7 cells assessed as cell proliferation after 6 days by WST8 assay relative to 17-beta-estradiol; type: functional
[4] = target: Estrogen receptor beta (Homo sapiens) (UniProt Q92731); experiment: Displacement of [2,4,6,7-3H]17beta-estradiol from human recombinant ERbeta receptor by liquid scintillation counter relative to 17-beta-estradiol
Estrogen receptor beta (Homo sapiens), sequence (Q92731 whole entry): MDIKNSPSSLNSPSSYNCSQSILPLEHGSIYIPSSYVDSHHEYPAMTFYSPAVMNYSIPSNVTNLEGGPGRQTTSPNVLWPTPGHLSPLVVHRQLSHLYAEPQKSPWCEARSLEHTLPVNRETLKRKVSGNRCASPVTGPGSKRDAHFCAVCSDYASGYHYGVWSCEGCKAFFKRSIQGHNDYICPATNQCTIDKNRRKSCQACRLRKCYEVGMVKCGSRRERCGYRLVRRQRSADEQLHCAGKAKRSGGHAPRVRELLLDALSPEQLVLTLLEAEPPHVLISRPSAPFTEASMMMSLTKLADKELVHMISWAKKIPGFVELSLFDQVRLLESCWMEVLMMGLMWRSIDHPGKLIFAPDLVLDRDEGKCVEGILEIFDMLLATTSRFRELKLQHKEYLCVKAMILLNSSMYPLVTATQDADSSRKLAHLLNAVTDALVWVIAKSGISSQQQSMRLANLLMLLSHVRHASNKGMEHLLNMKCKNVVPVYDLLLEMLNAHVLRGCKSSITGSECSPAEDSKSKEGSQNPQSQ

Homo sapiens = species: Homo sapiens; experiment: Selectivity ratio of relative binding affinity for human recombinant ERalpha receptor to relative binding affinity for human recombinant ERbeta receptor
MCF7 [5] = experiment: Antiestrogenic activity in human MCF7 cells; type: functional, cell-based
MCF7 [6] = experiment: Estrogenic activity in human MCF7 cells assessed as cell proliferation after 6 days by WST8 assay

Structure (SMILES) | EC50 (MCF7 [1]) [nM] | relative binding affinity (RBA) [2] | Activity (MCF7 [3]) | relative binding affinity (RBA) [4] | Ratio (Homo sapiens) | Activity (MCF7 [5]) | Activity (MCF7 [6])
O=C(c1ccc(O)cc1)N(c1ccc(O)cc1)c1ccc(O)cc1 | 5.2 | 0.336 | 240 | 0.063 | 0.188 | inactive | 
O=C(c1ccccc1)N(c1ccc(O)cc1)c1ccc(O)cc1 | 14 | 0.193 | 114 | 1.26 | 6.52 | inactive | 
Oc1ccc(N(CC2CCCCC2)c2ccc(O)cc2)cc1 | 210 | 0.89 | 109 | 6.7 | 7.52 | inactive | 
O=S(=O)(c1ccccc1)N(c1ccc(O)cc1)c1ccc(O)cc1 | 63 | 0.04 | 98 | < 0.001 |  | inactive | 
CS(=O)(=O)N(c1ccc(O)cc1)c1ccc(O)cc1 | 6900 | < 0.001 | 213 | < 0.001 |  | inactive | 
Oc1ccc(N(CC2CC2)c2ccc(O)cc2)cc1 |  | 0.054 |  | < 0.001 |  | inactive | 
CCCCCCN(c1ccc(O)cc1)c1ccc(O)cc1 | 11 | 0.153 | 130 | 0.102 | 0.667 | inactive | 
CC(C)N(c1ccc(O)cc1)c1ccc(O)cc1 |  | < 0.001 |  | < 0.001 |  | inactive | inactive
Oc1ccc(N(c2ccccc2)c2ccc(O)cc2)cc1 | 120 | 1.29 | 87 | 1.91 | 1.48 | inactive | 
Oc1ccc(Nc2ccc(O)cc2)cc1 |  | < 0.001 |  | < 0.001 |  | inactive | inactive
CN(c1ccc(O)cc1)c1ccc(O)cc1 |  | < 0.001 |  | < 0.001 |  | inactive | inactive
CC(C)CCN(c1ccc(O)cc1)c1ccc(O)cc1 | 570 | 0.129 | 31 | 2.34 | 18.1 | inactive | 
Oc1ccc(N(c2ccc(O)cc2)C2CCCCC2)cc1 | 590 | 1.13 | 64 | 4.3 | 3.8 | inactive | 
Oc1ccc(N(CC23CC4CC(CC(Br)(C4)C2)C3)c2ccc(O)cc2)cc1 | 11000 | 0.551 | 77 | 0.565 | 1.02 | inactive | 
O=S(=O)(c1ccc(O)cc1)N(c1ccc(O)cc1)c1ccc(O)cc1 | 12 | 0.352 | 99 | 0.004 | 0.011 | inactive | 
Oc1ccc(N(CCC2CCCCC2)c2ccc(O)cc2)cc1 | 500 | 3.64 | 71 | 6.84 | 1.88 | inactive | 
Oc1ccc(CN(c2ccc(O)cc2)c2ccc(O)cc2)cc1 | 370 | 4.26 | 42 | 4.05 | 0.951 | inactive | 
CC(=O)N(c1ccc(O)cc1)c1ccc(O)cc1 | 43000 | < 0.001 | 114 | < 0.001 |  | inactive | 
Oc1ccc(N(Cc2ccccc2)c2ccc(O)cc2)cc1 | 67 | 0.655 | 85 | 18.1 | 27.7 | inactive | 
